Measurements published in patent publication US9902734B2, “Nicotinic acetylcholine receptor agonists” (priority 2010, dated 2018).
“Also recorded” adds a separate entry of the source.

Legend:
[1] = tested on: nicotinic acetylcholine receptors (cell lines expressing various combinations of nicotinic-receptor subunits); assay: functional fluorescence bioassay of HPLC fractions across several cell lines; type: cell-based; conditions: for nicotinic receptor agonist activity (time-bioactivity profile of HPLC fractions): several cell lines
Protocol: (§1) The structures of compounds 1-6 are set forth below.
(§2) Biological Investigation of Phantasmidine. Semi-preparative HPLC-bioassay analysis was conducted as described previously^9 on the alkaloid fraction of E. anthonyi in several cell lines, including TE-671 (neuromuscular),^16 SH-SY5Y (ganglionic α3*, α3β4*, α7),^15 and several transfected cell lines expressing nicotinic receptor subunit combinations of α2-4 and β2/β4.^12,13,17
(§3) Collected analytical scale fractions in 96-well plates were reconstituted in situ with 300 μL Hanks balanced salt solution containing 20 mM HEPES at pH 7.4 (HBSS/HEPES) and were used as such. Cell lines expressing various nicotinic receptors were maintained in culture and used for functional fluorescence assays including SH-SY5Y, IMR-32, TE-671, KXα3β4R2, KXα4β4R1, and KXα4β2R2, as previously described.^9,11 Briefly, cells were plated onto 96-well poly-D-lysine-coated plates in Dulbecco's modified minimum essential media supplemented with 10% fetal bovine serum (supplemented with Geneticin G418 for KXα3β4R2, KXα4β4R1, and KXα4β2R2 cells) and grown to near confluence. The media was aspirated and the cells were gently washed with 2×100 μL HBSS/HEPES (pH 7.4). A solution of Molecular Devices no-wash membrane potential dye (30 μL) was added and the cells incubated in the dark at room temperature for 1 h. Plates were read on a FLEXSTATION™ (Molecular Devices) robotic plate reader at an excitation wavelength of 530 nm, emission wavelength of 565 nm, with a cutoff filter at 550 nm. Basal fluorescence was measured for 15 s and 30 μL of reconstituted E. anthonyi fraction in HBSS/HEPES were added. Response was measured for 105 s and 30 μL of 300 μM nicotine were added. The nicotine response was measured for 40 s and 30 μL of 160 mM KCl were added. Maximal fluorescence was measured for 40 s. Average basal fluorescence was subtracted and response was taken as the peak fluorescence for each addition divided by the maximal KCl fluorescence. Responses for each fraction were plotted as a function of time and compared to the UV and total ion chromatograms to identify active components. Preparative-scale isolation was then conducted and structures of active components were elucidated.

[2] = biological target: T1, KXα3β4R2 cells (HEK cells expressing rat α3 and β4 nicotinic receptor subunits) (Rattus norvegicus, UniProt P04757+P12392); type: cell-based
T1 construct: expressed in transfected cells; host or cells: HEK cells (KXα3β4R2)
T1 sequence (P12392 21-495): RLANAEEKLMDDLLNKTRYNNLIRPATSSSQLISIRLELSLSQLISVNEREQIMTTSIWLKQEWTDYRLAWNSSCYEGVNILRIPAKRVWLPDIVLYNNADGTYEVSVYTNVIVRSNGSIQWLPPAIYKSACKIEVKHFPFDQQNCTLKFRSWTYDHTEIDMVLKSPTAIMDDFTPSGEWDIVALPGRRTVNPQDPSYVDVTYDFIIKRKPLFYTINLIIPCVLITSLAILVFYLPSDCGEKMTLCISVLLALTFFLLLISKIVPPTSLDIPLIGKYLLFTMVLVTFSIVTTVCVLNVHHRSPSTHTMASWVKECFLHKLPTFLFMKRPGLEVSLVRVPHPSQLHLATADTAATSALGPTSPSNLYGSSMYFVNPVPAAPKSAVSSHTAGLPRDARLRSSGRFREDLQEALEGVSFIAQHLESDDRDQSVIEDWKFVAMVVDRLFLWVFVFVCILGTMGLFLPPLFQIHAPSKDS
T1 sequence (P04757 26-499): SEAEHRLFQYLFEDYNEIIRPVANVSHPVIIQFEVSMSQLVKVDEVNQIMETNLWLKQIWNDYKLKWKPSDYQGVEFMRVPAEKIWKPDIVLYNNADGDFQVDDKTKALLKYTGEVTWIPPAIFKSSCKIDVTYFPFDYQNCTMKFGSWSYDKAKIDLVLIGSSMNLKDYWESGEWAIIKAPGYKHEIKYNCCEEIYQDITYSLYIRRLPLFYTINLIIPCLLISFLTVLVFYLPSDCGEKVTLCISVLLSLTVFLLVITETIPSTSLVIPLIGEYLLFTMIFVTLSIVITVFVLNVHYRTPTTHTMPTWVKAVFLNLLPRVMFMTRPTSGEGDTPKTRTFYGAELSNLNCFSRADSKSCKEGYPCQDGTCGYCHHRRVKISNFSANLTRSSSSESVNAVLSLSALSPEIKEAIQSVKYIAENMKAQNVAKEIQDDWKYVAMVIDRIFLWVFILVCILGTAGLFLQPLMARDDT

nicotinic receptors = conditions: cited from earlier work
[3] = biological target: T2, K-177 cells (β2-containing) (Homo sapiens, UniProt P17787+P43681); assay: functional fluorescence bioassay of HPLC fractions; type: cell-based
T2 construct: expressed in transfected cells; host or cells: K-177
Protocol: as §1, §2

[4] = tested on: SH-SY5Y cells (ganglionic α3*, α3β4*, α7); assay: functional fluorescence (membrane potential dye) bioassay of HPLC fractions; type: cell-based
Protocol: as §1, §2, §3

[5] = biological target: T3, TE-671 cells (neuromuscular) (Homo sapiens, UniProt P02708+P07510+Q07001); assay: as above; type: cell-based
T3 construct: endogenous in cells; host or cells: TE-671
T3 sequence (P02708 21-457): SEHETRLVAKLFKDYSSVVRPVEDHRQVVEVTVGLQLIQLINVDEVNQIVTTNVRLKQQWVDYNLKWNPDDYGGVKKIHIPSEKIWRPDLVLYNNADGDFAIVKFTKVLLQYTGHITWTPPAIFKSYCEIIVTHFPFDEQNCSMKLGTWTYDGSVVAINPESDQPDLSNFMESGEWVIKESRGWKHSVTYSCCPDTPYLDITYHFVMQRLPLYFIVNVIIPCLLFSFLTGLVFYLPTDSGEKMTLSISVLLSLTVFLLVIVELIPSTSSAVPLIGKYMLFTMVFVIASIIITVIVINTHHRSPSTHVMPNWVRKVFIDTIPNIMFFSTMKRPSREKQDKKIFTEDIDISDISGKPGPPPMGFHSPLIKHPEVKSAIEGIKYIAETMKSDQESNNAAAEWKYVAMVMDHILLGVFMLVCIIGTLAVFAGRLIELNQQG
T3 sequence (P11230 24-501 partner): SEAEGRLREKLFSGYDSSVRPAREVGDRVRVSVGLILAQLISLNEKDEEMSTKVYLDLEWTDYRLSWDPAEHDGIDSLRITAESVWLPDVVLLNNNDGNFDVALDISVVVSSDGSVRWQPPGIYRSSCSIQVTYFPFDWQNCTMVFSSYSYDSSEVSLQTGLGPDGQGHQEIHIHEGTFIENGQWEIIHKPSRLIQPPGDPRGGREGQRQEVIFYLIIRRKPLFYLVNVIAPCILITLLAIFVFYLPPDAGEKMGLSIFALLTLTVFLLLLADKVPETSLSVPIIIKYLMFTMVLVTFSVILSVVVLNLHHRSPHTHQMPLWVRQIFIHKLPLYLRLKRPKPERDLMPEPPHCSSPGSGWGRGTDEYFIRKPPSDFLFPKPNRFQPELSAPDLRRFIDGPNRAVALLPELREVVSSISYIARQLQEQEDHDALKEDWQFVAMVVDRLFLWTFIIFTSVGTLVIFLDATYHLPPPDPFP
T3 sequence (P07510 23-517): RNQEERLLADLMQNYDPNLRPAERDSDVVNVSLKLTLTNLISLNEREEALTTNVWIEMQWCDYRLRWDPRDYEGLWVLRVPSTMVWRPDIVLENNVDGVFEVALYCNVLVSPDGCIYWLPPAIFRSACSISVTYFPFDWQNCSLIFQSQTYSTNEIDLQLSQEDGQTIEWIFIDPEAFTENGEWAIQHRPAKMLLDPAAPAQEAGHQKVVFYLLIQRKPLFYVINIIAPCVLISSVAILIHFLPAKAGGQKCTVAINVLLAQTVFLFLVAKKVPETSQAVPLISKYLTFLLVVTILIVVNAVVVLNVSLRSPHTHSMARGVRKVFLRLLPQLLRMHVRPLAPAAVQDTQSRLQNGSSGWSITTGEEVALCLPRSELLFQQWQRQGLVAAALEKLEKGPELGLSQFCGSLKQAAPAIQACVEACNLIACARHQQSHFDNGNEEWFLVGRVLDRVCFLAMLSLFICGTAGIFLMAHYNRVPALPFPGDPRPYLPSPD
T3 sequence (Q07001 22-517): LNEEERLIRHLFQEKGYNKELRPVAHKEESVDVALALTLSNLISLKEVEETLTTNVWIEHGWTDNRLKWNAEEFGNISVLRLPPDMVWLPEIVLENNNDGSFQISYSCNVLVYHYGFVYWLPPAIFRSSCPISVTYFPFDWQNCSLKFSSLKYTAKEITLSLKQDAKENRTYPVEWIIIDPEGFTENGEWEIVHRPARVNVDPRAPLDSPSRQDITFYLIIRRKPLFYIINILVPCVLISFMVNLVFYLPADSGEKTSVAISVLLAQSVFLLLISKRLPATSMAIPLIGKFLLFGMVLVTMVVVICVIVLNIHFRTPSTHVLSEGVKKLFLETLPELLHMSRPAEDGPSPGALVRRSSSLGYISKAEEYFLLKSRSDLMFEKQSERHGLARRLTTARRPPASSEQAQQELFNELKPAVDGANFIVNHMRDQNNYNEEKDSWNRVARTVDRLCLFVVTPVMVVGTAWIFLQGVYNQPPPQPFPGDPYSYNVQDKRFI
Protocol: as §1, §2, §3

[6] = tested on: IMR-32 cells (β4 nicotinic subunits); assay: as above; type: cell-based
Protocol: as §1, §2, §3

[7] = biological target: T4, KXα4β2R2 cells (β2-containing) (Rattus norvegicus, UniProt P09483+P12390); assay: as above; type: cell-based
T4 construct: expressed in transfected cells; host or cells: KXα4β2R2 (G418-selected transfected line)
T4 sequence (P12390 25-500): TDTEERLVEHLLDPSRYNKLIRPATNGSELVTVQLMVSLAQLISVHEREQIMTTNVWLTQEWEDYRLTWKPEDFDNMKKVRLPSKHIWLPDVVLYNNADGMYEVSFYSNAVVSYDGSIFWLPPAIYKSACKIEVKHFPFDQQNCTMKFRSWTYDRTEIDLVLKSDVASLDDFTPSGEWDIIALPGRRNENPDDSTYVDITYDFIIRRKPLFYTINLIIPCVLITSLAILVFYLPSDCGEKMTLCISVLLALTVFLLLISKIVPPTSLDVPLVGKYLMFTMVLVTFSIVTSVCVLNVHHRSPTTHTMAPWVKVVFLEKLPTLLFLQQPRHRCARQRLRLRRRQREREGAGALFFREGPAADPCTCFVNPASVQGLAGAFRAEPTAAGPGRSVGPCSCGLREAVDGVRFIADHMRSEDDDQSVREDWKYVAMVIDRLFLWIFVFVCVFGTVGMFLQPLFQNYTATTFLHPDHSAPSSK
T4 sequence (P09483 31-630): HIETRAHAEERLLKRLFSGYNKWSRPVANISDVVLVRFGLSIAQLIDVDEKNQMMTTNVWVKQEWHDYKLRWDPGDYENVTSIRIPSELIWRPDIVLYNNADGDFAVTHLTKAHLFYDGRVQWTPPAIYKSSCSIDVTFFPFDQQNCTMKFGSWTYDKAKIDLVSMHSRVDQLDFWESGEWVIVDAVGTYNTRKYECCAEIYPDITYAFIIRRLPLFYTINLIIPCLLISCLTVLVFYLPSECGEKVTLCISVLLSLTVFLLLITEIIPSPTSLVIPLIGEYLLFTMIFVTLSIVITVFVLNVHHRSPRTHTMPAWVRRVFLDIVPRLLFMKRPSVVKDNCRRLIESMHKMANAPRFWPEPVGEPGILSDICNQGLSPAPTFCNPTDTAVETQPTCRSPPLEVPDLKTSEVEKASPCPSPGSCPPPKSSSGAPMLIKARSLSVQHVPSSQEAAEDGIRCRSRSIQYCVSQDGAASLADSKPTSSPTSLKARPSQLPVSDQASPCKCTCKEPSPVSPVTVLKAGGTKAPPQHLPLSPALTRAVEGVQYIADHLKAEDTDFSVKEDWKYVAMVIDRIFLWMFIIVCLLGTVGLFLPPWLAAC
Protocol: as §1, §2, §3

[8] = biological target: T5, KXα4β4R1 cells (β4 nicotinic subunits) (Rattus norvegicus, UniProt P09483+P12392); assay: as above; type: cell-based
T5 construct: expressed in transfected cells; host or cells: KXα4β4R1 (G418-selected transfected line)
T5 sequence (P09483 31-630): as above
T5 sequence (P12392 21-495): as the sequence (P12392 21-495) above
Protocol: as §1, §2, §3

## Clc1ccc(C2CC3CCC2N3)cn1 (centres unmarked) [Compound 1, epibatidine]
[1]
  nicotinic receptor agonist activity (time-bioactivity profile of HPLC fractions): active in all cell lines to varying degrees; also recorded: greatest activity in the sample regardless of cell line examined

## CC(=O)N[C@H]1CCCN2CCCC[C@@H]12 [Compound 2, epiquinamide, reference compound]
[2]; cells expressing α3 and β4 subunits, fractions of E. anthonyi alkaloid extract
  nicotinic-agonist activity of isolated fraction: artifactual activity from cross contamination with epibatidine
[1]
  nicotinic receptor agonist activity (time-bioactivity profile of HPLC fractions): artifact due to a cross-contamination from 1

## CN1C2CCC1C(c1ccc(Cl)nc1)C2 (centres unmarked) [Compound 3, N-methylepibatidine]
Nicotinic receptors
  potency relative to epibatidine: essentially equipotent with epibatidine
[1]
  nicotinic receptor agonist activity (time-bioactivity profile of HPLC fractions): responsible for the leading edge of the epibatidine activity; also recorded: significant bioactivity

## Clc1ccc2c(n1)O[C@@]13CC[C@@H]1NC[C@@H]23 [Compound 4, Phantasmidine]
[3]
  relative activity compared to 1 (height and area of activity peaks): less activity
[4]
  relative activity compared to 1 (height and area of activity peaks): higher relative activities
[5]
  relative activity compared to 1 (height and area of activity peaks): less activity
[6]
  relative activity compared to 1 (height and area of activity peaks): higher relative activities
[7]
  relative activity compared to 1 (height and area of activity peaks): less activity
[8]
  relative activity compared to 1 (height and area of activity peaks): higher relative activities
[2]; KXα3β4R2 cells
  relative activity compared to 1 (height and area of activity peaks): higher relative activities
[1]; across several cell lines expressing different nicotinic-receptor subtypes
  subtype selectivity relative to 1: altered subtype selectivity relative to 1
[1]
  nicotinic receptor agonist activity (time-bioactivity profile of HPLC fractions): significant bioactivity; also recorded: nicotinic agonist
